Experimental findings from patent US11712438B2, “Phenyl derivatives as PGE2 receptor modulators” (IDORSIA PHARMACEUTICALS LTD, priority 2017, dated 2023) are described below.

Among the targets are PTGER2 (EP2) (Homo sapiens, UniProt P43116); EP2 (Homo sapiens, UniProt P43116); PTRGER4 (EP4) (Homo sapiens, UniProt P35408); EP4 (Homo sapiens, UniProt P35408).
Common to all, as to assay: cell-based

The structures appear in SMILES notation.

Sequence of PTGER2 (EP2) (P43116 whole entry): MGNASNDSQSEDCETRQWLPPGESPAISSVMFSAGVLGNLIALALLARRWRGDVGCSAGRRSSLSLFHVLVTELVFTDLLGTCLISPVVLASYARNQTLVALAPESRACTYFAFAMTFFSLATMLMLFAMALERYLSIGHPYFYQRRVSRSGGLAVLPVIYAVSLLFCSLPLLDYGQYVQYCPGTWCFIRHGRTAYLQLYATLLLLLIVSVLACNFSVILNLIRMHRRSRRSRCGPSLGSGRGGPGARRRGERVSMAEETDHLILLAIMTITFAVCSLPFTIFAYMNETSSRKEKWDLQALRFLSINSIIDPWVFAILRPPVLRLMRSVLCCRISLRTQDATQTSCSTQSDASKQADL
Sequence of EP2 (P43116 whole entry): as above
Sequence of EP4 (P35408 whole entry): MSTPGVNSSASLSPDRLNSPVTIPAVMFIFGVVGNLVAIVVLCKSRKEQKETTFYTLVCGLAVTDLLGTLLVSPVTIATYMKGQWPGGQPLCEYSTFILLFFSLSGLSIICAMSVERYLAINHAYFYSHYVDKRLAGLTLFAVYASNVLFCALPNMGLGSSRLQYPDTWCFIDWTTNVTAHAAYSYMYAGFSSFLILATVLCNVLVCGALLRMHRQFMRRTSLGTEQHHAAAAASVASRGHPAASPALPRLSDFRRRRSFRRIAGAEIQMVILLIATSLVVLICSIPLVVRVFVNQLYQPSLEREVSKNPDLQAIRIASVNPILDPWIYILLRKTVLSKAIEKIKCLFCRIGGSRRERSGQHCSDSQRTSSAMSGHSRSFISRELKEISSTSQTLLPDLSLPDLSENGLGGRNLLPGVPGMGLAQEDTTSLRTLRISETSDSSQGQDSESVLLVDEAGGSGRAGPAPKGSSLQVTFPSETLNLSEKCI
Sequence of PTRGER4 (EP4) (P35408 whole entry): as above
Description for PTGER2 (EP2): The assay is using the PathHunter™ HEK 293 PTGER2 and PTGER4 b-arrestin cell lines from DiscoverX. The system is based on the Enzyme Fragment Complementation Technology. Two complementing fragments of the b-galactosidase enzyme are expressed within stably transfected cells. The larger portion of b-gal, termed EA for Enzyme Acceptor, is fused to the C-terminus of b-arrestin 2. The smaller fragment, termed ProLink™ tag, is fused to PTGER2 (EP2) or PTRGER4 (EP4) at the C-terminus. Upon activation, b-arrestin is recruited which forces the interaction of ProLink and EA, allowing complementation of the two fragments of b-gal and the formation of a functional enzyme which is capable of hydrolysing the substrate and generating a chemiluminescent signal.
The HEK 293 PTGER2 b-arrestin cells (DiscoverX 93-021-4C1) are detached from culture dishes with a cell dissociation buffer (Invitrogen, 13151-014), and collected in growing medium (GM: DMEM+Glutamax-I (Invitrogen 32430)/10% FCS, 1% Penicilin/streptomycin). 5000 cells per well of a 384 well plate (white with white bottom Greiner 781080) are seeded in 20 ul per well of GM. Plate is incubated at 37° C., 5% CO2 for 24 hours.
Stock solutions of test compounds are made at a concentration of 10 mM in DMSO, and serially diluted in DMSO to concentrations required for inhibition dose response curves (tested concentration range 10 μM-2 nM or 1 μM-0.2 nM).
PGE2 (Cayman 14010, stock solution: 10 mM in DMSO) is used as agonist at 5 μM final concentration, corresponding to EC80.
Five microliters of diluted compounds are transferred into the assay plate. Plate is pre-incubated 15 minutes at 37° C. Then five microliters of PGE2 (final conc. 5 μM) are transferred into the assay plate. Plate is incubated 120 minutes at 37° C.
Twelve μl of reagent are transferred to the assay plate and incubate for 1 hour at room temperature in the dark. Luminescence counts are read on a BMG Fluostar Optima reader according to manufacturer's instructions.
For each compound concentration calculate of the percentage of activity compared to DMSO control value as average±STDEV. (each concentration is measured in duplicate)
When compounds were measured multiple times, mean values are given.

One may read the IC50 as the concentration that inhibits the measured activity by half. Higher therefore signals a need for much substance. For the compound `COc1cc(-c2cc(NCCc3c(F)cc(Br)cc3F)ncn2)ccc1-c1cc(O)no1` [Example 174, 5-(4-{6-[2-(4-Bromo-2,6-difluoro-phenyl)-ethylamino]-pyrimidin-4-yl}-2-methoxy-phenyl)-isoxazol-3-ol], the IC50 is 36 nM against PTGER2 (EP2), 265 nM at EP2, 108 nM against PTRGER4 (EP4) and 94 nM against EP4.

Consider `CNc1cc(-c2cc(NCCc3c(F)cc(Br)cc3F)ncn2)ccc1C(=O)O` [Example 231, 4-{6-[2-(4-Bromo-2,6-difluoro-phenyl)-ethylamino]-pyrimidin-4-yl}-2-methylamino-benzoic acid], for which the half-maximal inhibitory concentration (IC50) against PTGER2 (EP2) worked out at 16 nM; on EP2, 13 nM; against PTRGER4 (EP4), 94 nM; against EP4, 43 nM.

As to `CCOc1cc(-c2cc(NCCc3cc(F)c(Br)cc3C)ncn2)sc1-c1noc(=O)[nH]1` [Example 111, 3-(5-{6-[2-(4-Bromo-5-fluoro-2-methyl-phenyl)-ethylamino]-pyrimidin-4-yl}-3-ethoxy-thiophen-2yl)-[1,2,4]oxadiazol-5(4H)-one], the IC50 at PTGER2 (EP2) came to 31 nM; on EP2 it was 137 nM; on PTRGER4 (EP4) it was 6 nM; against EP4, 26 nM.

As to `CC(C)Cc1cc(-c2cc(NCCc3c(F)cc(Br)cc3F)ncn2)ccc1CC(=O)O` [Example 244, (4-{6-[2-(4-Bromo-2,6-difluoro-phenyl)-ethylamino]-pyrimidin-4-yl}-2-isobutyl-phenyl)-acetic acid], the IC50 at PTGER2 (EP2) was determined as 364 nM; on EP2, 1130 nM; against PTRGER4 (EP4), 251 nM; at EP4 it was 280 nM.

For the compound `COc1cc(C)c(C)cc1CCNc1cc(-c2ccc(C(=O)O)c(SC)c2)ncn1` [Example 3, 4-{6-[2-(2-Methoxy-4,5-dimethyl-phenyl)-ethylamino]-pyrimidin-4-yl}-2-methylsulfanyl-benzoic acid], the IC50 is 86 nM against PTGER2 (EP2), 45 nM against EP2, 420 nM on PTRGER4 (EP4) and 46 nM on EP4.

As to `CCOc1cc(-c2cc(NCCc3ccc(Br)cc3OC)ncn2)sc1-c1noc(=O)[nH]1` [Example 126, 3-(5-{6-[2-(4-Bromo-2-methoxy-phenyl)-ethylamino]-pyrimidin-4-yl}-3-ethoxy-thiophen-2yl)-[1,2,4]oxadiazol-5(4H)-one], the IC50 came to 22 nM at PTGER2 (EP2), 74 nM against EP2, 7 nM against PTRGER4 (EP4) and 20 nM against EP4.

In the case of `CCOc1cc(-c2cc(NCCc3ccc(OC)cc3OC)ncn2)sc1-c1noc(=O)[nH]1` [Example 116, 3-(5-{6-[2-(2,4-Dimethoxy-phenyl)-ethylamino]-pyrimidin-4-yl}-3-ethoxy-thiophen-2-yl)-[1,2,4]oxadiazol-5(4H)-one], the IC50 on PTGER2 (EP2) turned out to be 10 nM; against EP2, 14 nM; at PTRGER4 (EP4), 5 nM; at EP4 it was 8 nM.

As for `CCOc1cc(-c2cc(NCCc3c(F)cc(Br)cc3F)ncn2)sc1Cc1noc(=O)[nH]1` [Example 138, 3-(5-{6-[2-(4-Bromo-2,6-difluoro-phenyl)-ethylamino]-pyrimidin-4-yl}-3-ethoxy-thiophen-2-ylmethyl)-[1,2,4]oxadiazol-5(4H)-one], the IC50 worked out at 34 nM at PTGER2 (EP2), 123 nM against EP2, 130 nM on PTRGER4 (EP4) and 247 nM at EP4.

Turning to `COc1cc(C(F)(F)F)c(Cl)cc1CCNc1cc(-c2ccc(C(=O)O)c(SC)c2)ncn1` [Example 196, 4-{6-[2-(5-Chloro-2-methoxy-4-trifluoromethyl-phenyl)-ethylamino]-pyrimidin-4-yl}-2-methylsulfanyl-benzoic acid], the concentration for half-maximal inhibition (IC50) was 235 nM on PTGER2 (EP2), 400 nM on EP2, 113 nM against PTRGER4 (EP4) and 107 nM against EP4.

On to `CCc1cc(-c2cc(NCCc3c(F)cc(Br)cc3F)ncn2)sc1CC(=O)O` [Example 261, (5-{6-[2-(4-Bromo-2,6-difluoro-phenyl)-ethylamino]-pyrimidin-4-yl}-3-ethyl-thiophen-2yl)-acetic acid], for which the IC50 is 58 nM on PTGER2 (EP2), 165 nM against EP2, 42 nM against PTRGER4 (EP4) and 101 nM on EP4.

`O=c1[nH]c(-c2ccc(-c3cc(NCCc4c(F)cc(Br)cc4F)ncn3)cn2)no1` [Example 289, 3-(5-{6-[2-(4-Bromo-2,6-difluoro-phenyl)-ethylamino]-pyrimidin-4-yl}-pyridin-2-yl)-[1,2,4]oxadiazol-5(4H)-one]: the IC50 on PTGER2 (EP2) turned out to be 80 nM; against EP2 it was 234 nM; at PTRGER4 (EP4) it was 308 nM; against EP4, 320 nM.

In the case of `CCOc1cc(-c2cc(NCCc3c(F)ccc(F)c3Cl)ncn2)sc1-c1noc(=O)[nH]1` [Example 100, 3-(5-{6-[2-(2-Chloro-3,6-difluoro-phenyl)-ethylamino]-pyrimidin-4-yl}-3-ethoxy-thiophen-2yl)-[1,2,4]oxadiazol-5(4H)-one], the IC50 against PTGER2 (EP2) was 17 nM; against EP2, 50 nM; at PTRGER4 (EP4) it was 27 nM; against EP4, 59 nM.

With `CCOc1cc(-c2cc(NCCc3c(OC)cc(Br)cc3OC)ncn2)sc1-c1noc(=O)[nH]1` [Example 88, 3-(5-{6-[2-(4-Bromo-2,6-dimethoxy-phenyl)-ethylamino]-pyrimidin-4-yl}-3-ethoxy-thiophen-2yl)-[1,2,4]oxadiazol-5(4H)-one], the IC50 at PTGER2 (EP2) came to 9 nM; against EP2, 31 nM; against PTRGER4 (EP4), 2 nM; on EP4, 6 nM.

As to `O=C(O)c1ccc(-c2cc(NCCc3c(F)cc(Br)cc3F)ncn2)cc1OC(F)F` [Example 41, 4-{6-[2-(4-Bromo-2,6-difluoro-phenyl)-ethylamino]-pyrimidin-4-yl}-2-difluoromethoxy-benzoic acid], the IC50 against PTGER2 (EP2) was 92 nM; against EP2, 20 nM; against PTRGER4 (EP4) it was 342 nM; on EP4, 107 nM.

`CCOc1cc(C(F)(F)F)ccc1CCNc1cc(-c2cc(OCC)c(C(=O)O)s2)ncn1` [Example 215, 3-Ethoxy-5-{6-[2-(2-ethoxy-4-trifluoromethyl-phenyl)-ethylamino]-pyrimidin-4-yl}-thiophene-2-carboxylic acid]: the IC50 amounted to 10 nM against PTGER2 (EP2), 12 nM against EP2, 3 nM against PTRGER4 (EP4) and 8 nM against EP4.

Turning to `O=C(O)c1ccc2cc(-c3cc(NCCc4c(F)cc(Br)cc4F)ncn3)[nH]c2c1` [Example 169, 2-{6-[2-(4-Bromo-2,6-difluoro-phenyl)-ethylamino]-pyrimidin-4-yl}-1H-indole-6-carboxylic acid], the IC50 against PTGER2 (EP2) came to 21 nM; on EP2 it was 74 nM; against PTRGER4 (EP4), 457 nM; against EP4, 1380 nM.

Take `COc1cc(SC)ccc1CCNc1cc(-c2ccc(C(=O)O)c(SC)c2)ncn1` [Example 2, 4-{6-[2-(2-Methoxy-4-methylsulfanyl-phenyl)-ethylamino]-pyrimidin-4-yl}-2-methylsulfanyl-benzoic acid]: the IC50 came out at 438 nM against PTGER2 (EP2), 79 nM against EP2, 550 nM against PTRGER4 (EP4) and 112 nM on EP4.
